Where two headings read alike, the source gives them in different places. Square brackets hold non-standard residues; d marks the D form. Ends that are not written are not given here. Peptide text beside a SMILES is read from it.

Series [1] addresses T1, human CMKLR1 (Homo sapiens, UniProt Q99788).
T1 construct: host or cells: HEK293A (Invitrogen), stably expressing human Gα15
T1 sequence (Q99788 1-373): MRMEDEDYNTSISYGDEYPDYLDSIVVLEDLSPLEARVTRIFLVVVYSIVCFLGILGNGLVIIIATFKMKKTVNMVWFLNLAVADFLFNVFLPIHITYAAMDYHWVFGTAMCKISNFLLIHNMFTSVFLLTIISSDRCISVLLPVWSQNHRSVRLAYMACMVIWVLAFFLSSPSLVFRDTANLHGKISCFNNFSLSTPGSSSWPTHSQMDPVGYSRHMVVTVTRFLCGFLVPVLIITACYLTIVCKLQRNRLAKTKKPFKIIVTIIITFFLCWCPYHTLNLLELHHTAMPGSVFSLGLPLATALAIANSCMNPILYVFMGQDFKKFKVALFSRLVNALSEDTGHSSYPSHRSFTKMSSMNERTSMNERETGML
Briefly: Ca2+ mobilization (CellLux imaging) agonist assay in HEK293A cells expressing CMKLR1 and Gα15. Type of series: cell-based. An outline of the steps:
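Agonist-evoked Ca2+ rise, read as FLUO4-AM fluorescence by imaging, in HEK293A cells carrying CMKLR1 plus Gα15. Peptides were diluted in C1 solution (pH 7.4) containing 0.1% BSA. Duplicate signals were averaged, corrected for buffer wells and normalized to background, and EC50 was fitted from amplitude versus concentration.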

Series [2] is described as follows: In vitro peptide stability in human serum (RP-HPLC). To be noted: for half-life at 50 µg/mL: human, human serum, 25% (v/v) in RPMI.
Experimental: The initial time is recorded, and at known time intervals 50 µL of the reaction solution is removed and added to 100 µL of 6% aqueous trichloroacetic acid (TCA) for precipitation of serum proteins. […] The reaction supernatant is then analyzed using RP-HPLC (Agilent 1200 LC System) on a ZORBAX Eclipse XDB-C18, 4.6×150 mm, 5 µm column (Agilent). […] Fluorescence is detected at an excitation wavelength of 280 nm and emission wavelength of 340 nm. Kinetic analysis was carried out by least-squares analysis of the logarithm of the integration peak area versus time.
The mark [3] stands for this setting: Ca2+ mobilization, CMKLR1, decimal comma.
Where [4] appears, read: Ca2+ mobilization, CMKLR1, decimal comma, NR where no EC50 is given, read-out: EC50.
[5] abbreviates: intracellular calcium mobilization, HEK293 cells expressing CMKLR1, mean of three independent experiments ± SD, read-out: activity: EC50 ±SD.

For `CC(C)C[C@H](N)C(=O)N[C@H](Cc1c[nH]c2ccccc12)C(=O)NCC(=O)NCC(=O)N1CCC[C@H]1C(=O)N[C@@H](Cc1ccc(O)cc1)C(=O)N[C@@H](C)C(=O)N[C@H](CC(=O)O)C(=O)N[C@@H](CO)C(=O)O` [compound 131] (H-L[dW]GGPYA[dD]S-OH; N-terminus assumed), the max response in series [1] (setting [3]) is recorded as 1,67 DF/F0. Besides, the EC50 in series [1] (setting [4]) came to 53.2 nM. In series [2], this compound had a half-life at 50 µg/mL of 551 min.
As to `CC(C)C[C@H](NC(=O)[C@H](N)Cc1ccccc1)C(=O)N1CCC[C@H]1C(=O)NCC(=O)N[C@@H](CCC(N)=O)C(=O)N[C@@H](Cc1ccc(O)cc1)C(=O)N[C@@H](C)C(=O)N[C@@H](Cc1ccccc1)C(=O)N[C@H](CO)C(=O)O` [compound 95] (H-[dF]LPGQYAF[dS]-OH; N-terminus assumed), the max response in series [1] (setting [3]) is 1,75 DF/F0. In series [1] (setting [4]), the EC50 was 80.6 nM. In series [2], this compound gave a half-life at 50 µg/mL of 2440 min.
Regarding YLPGQFQFS-OH [compound 44], in series [1] (setting [3]), the max response is reported as 0,76 DF/F0. Moreover, in series [1] (setting [4]), the EC50 turned out to be 9.54 nM. The compound also had a half-life at 50 µg/mL in series [2] of 15 min.
On to `CC(C)C[C@H](NC(=O)[C@H](N)Cc1ccc(O)cc1)C(=O)N1CCC[C@H]1C(=O)N[C@H](CO)C(=O)N[C@@H](CCC(N)=O)C(=O)N[C@@H](Cc1ccc(O)cc1)C(=O)N[C@@H](C)C(=O)N[C@@H](Cc1ccccc1)C(=O)N[C@H](CO)C(=O)O` [yLPsQYAFs] (H-[dY]LP[dS]QYAF[dS]-OH; N-terminus assumed), for which the EC50 in series [1] (setting [5]) is 2.9 ± 1.34 nM. The half-life at 50 µg/mL in series [2] turned out to be 1410 ± 85 min.
Consider YLPGQGAFK-OH [compound 69], for which the max response in series [1] (setting [3]) is listed as 0,99 DF/F0. For the same compound, in series [1] (setting [4]), the EC50 is 1870 nM. The same compound gave a half-life at 50 µg/mL in series [2] of 22 min.
`CC(C)C[C@H](NC(=O)[C@@H]1CCCN1C(=O)[C@@H]1CCCN1)C(=O)N[C@H](Cc1c[nH]c2ccccc12)C(=O)N[C@@H](CCC(N)=O)C(=O)N[C@@H](Cc1ccc(O)cc1)C(=O)N[C@@H](C)C(=O)N[C@H](CC(=O)O)C(=O)N[C@H](CO)C(=O)O` [compound 153] (H-PPL[dW]QYA[dD][dS]-OH; N-terminus assumed): the max response in series [1] (setting [3]) is on record as 1,31 DF/F0. Also, the EC50 in series [1] (setting [4]) came to 313 nM. Also, the half-life at 50 µg/mL in series [2] stood at 86 min.
For the compound `CC(C)C[C@H](NC(=O)[C@@H](N)Cc1ccc(O)cc1)C(=O)N1CCC[C@H]1C(=O)NCC(=O)N[C@@H](CCC(N)=O)C(=O)N[C@@H](C)C(=O)N[C@H](Cc1ccccc1)C(=O)N[C@@H](Cc1ccccc1)C(=O)N[C@@H](CCCCN)C(=O)O` [compound 78] (H-YLPGQA[dF]FK-OH; N-terminus assumed), in series [1] (setting [3]), the max response is 1,15 DF/F0. The EC50 in series [1] (setting [4]) was found to be 233000 nM. The compound further gave a half-life at 50 µg/mL in series [2] of 24 min.
`CC(C)C[C@H](NC(=O)[C@@H](N)Cc1ccc(O)cc1)C(=O)N1CCC[C@H]1C(=O)NCC(=O)N[C@@H](CCC(N)=O)C(=O)N[C@@H](Cc1ccc(O)cc1)C(=O)N[C@@H](C)C(=O)N[C@H](C)C(=O)N[C@H](Cc1ccccc1)C(=O)O` [compound 141] (H-YLPGQYA[dA][dF]-OH; N-terminus assumed): in series [1] (setting [3]), the max response is 1,73 DF/F0. Further, the EC50 in series [1] (setting [4]) came out at 108 nM. In series [2], this compound had a half-life at 50 µg/mL of 34 min.
In the same order, the values of `CC(C)C[C@H](N)C(=O)N[C@H](Cc1c[nH]c2ccccc12)C(=O)NCC(=O)NCC(=O)N1CCC[C@H]1C(=O)N[C@@H](Cc1ccc(O)cc1)C(=O)N[C@H](Cc1c[nH]c2ccccc12)C(=O)N[C@@H](Cc1ccc(O)cc1)C(=O)N[C@H](CO)C(=O)O` [compound 128] (H-L[dW]GGPY[dW]Y[dS]-OH; N-terminus assumed) are 1,45 DF/F0, 38.7 nM and 480 min.
For the compound `CC(C)C[C@@H](NC(=O)[C@H](CCCNC(=N)N)NC(=O)[C@@H](N)Cc1ccc(O)cc1)C(=O)NCC(=O)N[C@@H](CCC(N)=O)C(=O)N[C@@H](Cc1ccc(O)cc1)C(=O)N[C@H](Cc1c[nH]c2ccccc12)C(=O)N[C@H](CC(=O)O)C(=O)N[C@H](Cc1ccccc1)C(=O)O` [compound 129] (H-YR[dL]GQY[dW][dD][dF]-OH; N-terminus assumed), in series [1] (setting [3]), the max response is given as 1,1 DF/F0. The EC50 in series [1] (setting [4]) turned out to be 41.7 nM. The same compound returned a half-life at 50 µg/mL in series [2] of 32 min.
For the compound `C[C@H](NC(=O)[C@H](Cc1ccc(O)cc1)NC(=O)[C@H](CCC(N)=O)NC(=O)CNC(=O)[C@H](Cc1ccccc1)NC(=O)[C@H](Cc1ccc(O)cc1)NC(=O)[C@H](N)CS)C(=O)N[C@@H](Cc1ccccc1)C(=O)N[C@H](CO)C(=O)O` [compound 113] (H-[dC]YFGQYAF[dS]-OH; N-terminus assumed), the max response in series [1] (setting [3]) is 1,56 DF/F0. Besides, the EC50 in series [1] (setting [4]) is 2190 nM. The half-life at 50 µg/mL in series [2] was 29 min.
Take `CC(C)C[C@H](NC(=O)[C@@H](N)Cc1ccc(O)cc1)C(=O)N1CCC[C@H]1C(=O)N[C@H](CCC(N)=O)C(=O)N[C@@H](CCC(N)=O)C(=O)N[C@@H](Cc1ccc(O)cc1)C(=O)N[C@@H](C)C(=O)N[C@@H](Cc1ccccc1)C(=O)N[C@H](Cc1ccccc1)C(=O)O` [compound 123] (H-YLP[dQ]QYAF[dF]-OH; N-terminus assumed): in series [1] (setting [3]), the max response is recorded as 1,74 DF/F0. In series [2] (metabolic stability in human serum), the t1/2 came out at 87 min.
`CC(C)C[C@H](NC(=O)[C@@H](N)Cc1ccc(O)cc1)C(=O)N1CCC[C@H]1C(=O)N[C@@H](Cc1ccc(O)cc1)C(=O)N1CCC[C@H]1C(=O)N[C@@H](Cc1ccc(O)cc1)C(=O)N1CCC[C@@H]1C(=O)N[C@@H](Cc1ccccc1)C(=O)N[C@H](Cc1ccccc1)C(=O)O` [compound 147] (H-YLPYPY[dP]F[dF]-OH; N-terminus assumed): the max response in series [1] (setting [3]) is reported as 1,36 DF/F0. Further, the EC50 in series [1] (setting [4]) is 207 nM. Also, the half-life at 50 µg/mL in series [2] worked out at 28 min.
As for `CC(C)[C@H](NC(=O)[C@@H](N)Cc1ccc(O)cc1)C(=O)N1CCC[C@H]1C(=O)NCC(=O)N[C@@H](CCC(N)=O)C(=O)N[C@@H](Cc1ccccc1)C(=O)N[C@@H](C)C(=O)N[C@@H](Cc1ccccc1)C(=O)N[C@H](Cc1ccccc1)C(=O)O` (H-YVPGQFAF[dF]-OH; N-terminus assumed), the EC50 in series [1] (setting [5]) is 4.17 ± 2.31 nM. For the same compound, the half-life at 50 µg/mL in series [2] turned out to be 42 ± 19 min.
`C[C@H](NC(=O)[C@H](Cc1ccc(O)cc1)NC(=O)[C@H](CCC(N)=O)NC(=O)CNC(=O)[C@@H]1CCCN1C(=O)[C@@H](Cc1ccc(O)cc1)NC(=O)[C@@H](N)Cc1ccc(O)cc1)C(=O)N[C@@H](Cc1ccccc1)C(=O)N[C@H](CO)C(=O)O` [compound 88] (H-Y[dY]PGQYAF[dS]-OH; N-terminus assumed): the max response in series [1] (setting [3]) is recorded as 1,51 DF/F0. Further, the EC50 in series [1] (setting [4]) was found to be 35.1 nM. Also, the half-life at 50 µg/mL in series [2] stood at 891 min.
In the case of FLFGFQFAY-OH [compound 109], in series [1] (setting [3]), the max response is listed as 1,7 DF/F0. Also, the EC50 in series [1] (setting [4]) was found to be 1650 nM. The same compound came in with a half-life at 50 µg/mL in series [2] of 16 min.
Regarding `CC(C)C[C@H](NC(=O)[C@@H](N)Cc1ccccc1)C(=O)N1CCC[C@H]1C(=O)NCC(=O)N[C@@H](CCC(N)=O)C(=O)NCC(=O)N[C@H](Cc1ccccc1)C(=O)N[C@@H](Cc1ccccc1)C(=O)N[C@@H](CO)C(=O)O` [compound 61] (H-FLPGQG[dF]FS-OH; N-terminus assumed), the max response in series [1] (setting [3]) is given as 0,73 DF/F0. Besides, the EC50 in series [1] (setting [4]) came out at 456 nM. The same compound came in with a half-life at 50 µg/mL in series [2] of 41 min.
Turning to `CC(C)[C@H](NC(=O)[C@@H](Cc1ccc(O)cc1)NC(=O)[C@H](CO)NC(=O)[C@@H]1CCCN1)C(=O)N1CCC[C@H]1C(=O)NCC(=O)N[C@@H](CCC(N)=O)C(=O)N[C@@H](Cc1ccc(O)cc1)C(=O)N[C@@H](C)C(=O)O` [compound 107] (H-PS[dY]VPGQYA-OH; N-terminus assumed), the max response in series [1] (setting [3]) is on record as 1,97 DF/F0. Moreover, in series [1] (setting [4]), the EC50 was 1060 nM. The compound further gave a half-life at 50 µg/mL in series [2] of 362 min.
In the case of YLPGYLPGH-OH [compound 77], the max response in series [1] (setting [3]) is 1,04 DF/F0. Moreover, the EC50 in series [1] (setting [4]) is 217000 nM. The compound further displayed a half-life at 50 µg/mL in series [2] of 17 min.
The corresponding values for `CC(C)C[C@H](NC(=O)[C@H](Cc1ccc(O)cc1)NC(=O)[C@H](CCC(N)=O)NC(=O)[C@@H](Cc1ccccc1)NC(=O)[C@@H](CC(=O)O)NC(=O)[C@@H]1CCCN1C(=O)[C@H](CC(C)C)NC(=O)[C@@H](N)Cc1ccc(O)cc1)C(=O)N1CCC[C@H]1C(=O)O` [compound 148] (H-YLP[dD][dF]QYLP-OH; N-terminus assumed) are 1,74 DF/F0, 207 nM and 32 min.
With `NC(=O)CC[C@H](NC(=O)CNC(=O)[C@@H]1CCCN1C(=O)[C@H](Cc1ccccc1)NC(=O)[C@H](N)Cc1ccc(O)cc1)C(=O)N[C@@H](Cc1ccc(O)cc1)C(=O)N[C@H](Cc1c[nH]c2ccccc12)C(=O)N[C@@H](Cc1ccccc1)C(=O)N[C@H](Cc1ccccc1)C(=O)O` [compound 133] (H-[dY]FPGQY[dW]F[dF]-OH; N-terminus assumed), the max response in series [1] (setting [3]) is reported as 1,62 DF/F0. Further, in series [1] (setting [4]), the EC50 was 67.4 nM. This compound also came in with a half-life at 50 µg/mL in series [2] of 20 min.
For FLPGQFLPG-OH [compound 63], in series [1] (setting [3]), the max response is listed as 0,81 DF/F0. In addition, in series [1] (setting [4]), the EC50 came to 554 nM. In addition, the half-life at 50 µg/mL in series [2] was 46 min.

(Values after paper PMC3351444, “Molecular Evolution of a Peptide GPCR Ligand Driven by Artificial Neural Networks” (PLoS ONE, 2012).)
